US12251411B2, “Methods of treating endometrial cancer using hemp extract” (Ecofibre USA Inc., priority 2021, dated 2025)
In brackets after ≈: the same amount, converted by molar mass. Where two headings read alike, the source gives them in different places.

Assays:
[1] = test system: patient derived organoids; format: cell-based, human; conditions: % of cells that died compared to control; organoids of the chemoresistant patient
Procedure: In addition to the agents listed above, several other drugs were tested to see if they influenced organoid growth. In this case, results are shown as the % of cells that died compared to control. […] This is consistent with the patient's actual lack of response to treatment with paclitaxel.

[2] = cited from earlier work
[3] = test system: patient derived organoids; assay: Calculated IC50 of various agents on organoids derived from the chemoresistant patient (PD3D cell culture); format: cell-based, human; conditions: organoids of the chemoresistant stage IV patient
Procedure: The IC50 values were calculated from such tests. This value indicates the dosage at which 50% of the organoids were killed due to treatment.

endometrial cancer = assay: Case of a patient with stage IV chemoresistant metastatic endometrial cancer (PET/CT follow up)
From the text: Soon after the experiments detailed above a person came to us. They were diagnosed with endometrial cancer after presenting with significant pain and discomfort. They had already undergone a total hysterectomy and bilateral salpingo-oophorectomy followed by five rounds of chemotherapy. Each of the first five rounds of chemotherapy was a combined chemotherapy with Paclitaxil/Carboplatin.
See, Tables 3 and 4, below. […] As such, […] began standard protocol GemCap treatment in combination with a regime of 30 mg of BSHE twice daily via oral mucosal delivery and 75 mg of FSHE once daily via intravaginal delivery.

[4] = cited from earlier work; remark: listed apart in the source
[5] = test system: patient derived endometrial cancer tumors; assay: Patient-derived xenograft mice: change in endometrial cancer tumor volume with cannabis extracts alone; format: in vivo
Procedure: Generally, EC stem cells from the same patients that participated in the organoid studies of FIG. 7, were injected into the mice, and allowed to grow. After tumors reached a certain size, the mice were either injected (3 times/week) with the extract-delivery vehicle or with the particular cannabis extract. After a certain amount of time elapsed, tumor size was measured. The details regarding patient-derived xenograft methodology and experimental protocol are provided in the Methods section.
The % change is an average number taken from tumor volumes of three mice compared to the starting average tumor volume on day 0 of treatment. Change can either be positive (tumor increases in size) or negative (tumor decreases in size).
(§1) Human patient cells from endometrial cancer were injected subcutaneously into female NOD/SCID gamma mice after resuspending in 100 μL solution. […] Tumor size was measured before treatment, followed by twice a week measurements. All treatment group mice were kept alive for up to 10 weeks after drug injection or until the tumor volume grows bigger than 2500 mm^3.

[6] = test system: patient derived endometrial cancer tumors; assay: Patient-derived xenograft mice: tumor volume with paclitaxel alone or combined with cannabis extract; format: in vivo
Procedure: as §1

[7] = test system: endometrial cancer patient derived organoids; assay: Viability of patient-derived endometrial cancer organoids treated with cannabis extracts (CellTiter-Glo); conditions: for IC50: Homo sapiens
Procedure: For this set of experiments, we obtained tissue samples from a new set of 12 patients, each having grade 1, grade 2, or grade 3 endometrial cancer. Cells from these patients were prepared as described in the Methods section below.
(§2) Individual patient cell organoids were cultured separately in different plates.
(§3) The same IC50 dose was given with each incremental dose of chemotherapeutic agent.

[8] = test system: patient derived endometrial cancer organoids; assay: Patient-derived endometrial cancer organoid viability: chemotherapeutic agent alone or with IC50 dose of cannabis extract
Procedure: To perform these experiments, we used cells from patient 4 (see, e.g., FIGS. 7A and 7C) to test grade 2 endometrial cancer and cells from patient 12 (see, e.g., FIGS. 7B-7D) to test grade 3 endometrial cancer. […] Methods concerning producing organoids from human tissue samples are provided in the Methods section at the end of this document.
as §2, §3

[9] = test system: organoids from the patient's endometrial cancer; assay: Response of organoids crafted from the patient's endometrial cancer to alternative chemotherapies and BSHE; format: cell-based, human; conditions: chemoresistant stage IV endometrial cancer patient
From the text: See, Tables 3 and 4, below.

[10] = before cannabis extract treatment
[11] = patient 4, carboplatin alone 250 μM/mL

In the case of `Nc1nc2[nH]cc(CCc3ccc(C(=O)N[C@@H](CCC(=O)O)C(=O)O)cc3)c2c(=O)[nH]1` [Pemetrexed], the “% Cell Death” value [1] is given as “No Response”, the Cmax [2] is given as 291000 nM and the “Calculated IC50 PD3D Cell Culture” value [3] is given as “Not Reached”.

For Paclitaxil/Carboplatin, the “outcome of the patient's earlier treatment” value (endometrial cancer; [10]) was “ineffective”.

For `CN(C)C(=N)N=C(N)N` [Metformin], the Cmax ([2]; in vivo) is given as 10800 nM and the “Calculated IC50 PD3D Cell Culture” value [3] is given as “Not Reached”.

In the case of `CCCCCOC(=O)Nc1nc(=O)n([C@@H]2O[C@H](C)[C@@H](O)[C@H]2O)cc1F` [Capecitabine (5-FU)], the “% Cell Death” value [1] is reported as 61% and the “Calculated IC50 PD3D Cell Culture” value [3] is reported as “Not Reached”.

For `C=C(C)[C@@H]1CCC(C)=C[C@H]1c1c(O)cc(CCCCC)c(C(=O)O)c1O` [CBDA, cannabidiolic acid], the bioavailability ([4]; consumed with other cannabinoids in FSHE vs equivalent dose of isolated CBDA) is given as “increased bioavailability”, the “increase in average tumor volume vs day 0” value ([5]; day 7, 3 doses of about 30 mg/kg, injected 3 times/week) is given as “greater than 30%” and the “overall decrease in average tumor volume in three days” value ([5]; day 7 to day 10, about 30 mg/kg, 3 times/week) is given as “greater than 60%”. The “decrease in average tumor volume vs day 0” value ([5]; day 10, about 30 mg/kg, 3 times/week) was “greater than 30%”, the “decrease in average tumor volume compared to starting size” value ([5]; day 14, 6 doses total of about 30 mg/kg) was 70% and the “decrease in average tumor volume compared to starting size” value ([5]; day 21, 9 doses total of about 30 mg/kg) was ~100%. The “increase in average tumor volume” value ([6]; a few days before day 14, extract 30 mg/kg + paclitaxel 10 mg/kg) was ~40%, the “decrease in average tumor volume compared to paclitaxel alone” value ([6]; day 14, extract 30 mg/kg + paclitaxel 10 mg/kg) was ~20% and the response of organoids ([7]; 10 and 15 μg/mL) was “a strong response was not seen in all patient derived organoids”. For the same compound, the IC50 ([7]; read-out: IC50s for Patient 4 Organoids (Grade 2 Endometrial Cancer)) was 12.1 µg/mL (≈ 33.6 µM), the IC50 ([7]; read-out: IC50s for Patient 12 Organoids (Grade 3 Endometrial Cancer)) was 15.8 µg/mL (≈ 44.1 µM) and the “formation of viable organoids” value ([7]; all patients, dosing up to 50 μg/mL) was ~0%. For the same compound, the “effect on organoid viability” value ([7]; lower doses) was “did not affect organoid viability”.

With `N.N.O=C([O-])C1(C(=O)[O-])CCC1.[Pt+2]` [Carboplatin] the “% Cell Death” value [1] was 30%, the “reduction of viable organoids” value ([8]; patient 4, carboplatin alone 50 μM/mL) was “about 50%” and the “decrease in viability as compared to 50 μM/mL” value ([8]; patient 4, carboplatin alone 100 μM/mL) was 2%. The “decrease in viability from that achieved at 50 μM/mL” value [8, 11] was 17% and the organoid viability [8, 11] was “about 32%”.

For `O=C(Nc1ccc([N+](=O)[O-])cc1Cl)c1cc(Cl)ccc1O` [Niclosamide], the Cmax ([2]; in vivo) is listed as 310 nM and the IC50 ([3]; Homo sapiens) is listed as 0.6 µM.

For Atezolizumab, the “adverse effects of the patient's earlier treatment” value (endometrial cancer; [10]) was “severe adverse effects” and the “outcome of the patient's earlier treatment” value (endometrial cancer; [10]) was “failed”.

In the case of `O=C(O)C(Cl)Cl` [Dichloracetate], the Cmax ([2]; in vivo) is given as 330000 nM and the “Calculated IC50 PD3D Cell Culture” value [3] is given as “Not Reached”.

For `O=C(c1cc(Cc2n[nH]c(=O)c3ccccc23)ccc1F)N1CCN(C(=O)C2CC2)CC1` [Olaparib], the Cmax [2] is given as 17500 nM and the “Calculated IC50 PD3D Cell Culture” value [3] is given as “Not Reached”.

For `C[C@@H](Oc1cc(-c2cnn(C3CCNCC3)c2)cnc1N)c1c(Cl)ccc(F)c1Cl` [Crizotinib], the Cmax ([2]; in vivo) is listed as 230 nM and the “Calculated IC50 PD3D Cell Culture” value [3] is listed as “Not Reached”.

In the case of `CCCCCc1cc(O)c2c(c1)OC(C)(C)[C@@H]1CCC(C)=C[C@@H]21` [THC, Δ^9-tetrahydrocannabinol], the “onset to reach peak plasma concentration” value ([4]; oral formulations) is given as ~120 min.

In the case of `CC(=O)O[C@H]1C(=O)[C@@]2(C)[C@H]([C@H](OC(=O)c3ccccc3)[C@]3(O)C[C@H](OC(=O)[C@H](O)[C@@H](NC(=O)c4ccccc4)c4ccccc4)C(C)=C1C3(C)C)[C@]1(OC(C)=O)CO[C@@H]1C[C@@H]2O` [Paclitaxel], the “% Cell Death” value [1] is reported as 39%, the “decrease in tumor volume” value ([6]; paclitaxel alone 10 mg/kg, day 10) is reported as ~37% and the “further change of tumor volume” value ([6]; paclitaxel alone 10 mg/kg, day 10 to day 21) is reported as “does not really change”. The organoid viability ([8]; human, 9 days, 4 nM/mL) was “about 30%”, the “improvement of 20 nM/mL over the lower dose (4 nM/mL)” value ([8]; patient 4, grade 2, paclitaxel alone) was “about 12%” and the “improvement in reducing % viable organoids between 4 nM/mL and 20 nM/mL” value ([8]; patient 12, grade 3, paclitaxel alone) was ~5%.

For `N.N.[Cl][Pt][Cl]` [Cisplatin], the “% Cell Death” value [1] is given as 36%, the Cmax ([2]; in vivo) is given as 3620 nM and the IC50 [3] is given as 5.05 µM.

For `CO[C@@H](C)Cn1c(=O)n(C)c2cnc3ccc(-c4cncc(C(C)(C)O)c4)cc3c21` [Samotolisib], the Cmax ([2]; in vivo) is listed as 600 nM and the IC50 ([3]; Homo sapiens) is listed as 0.87 µM.

For `O=C(c1ccc(F)c(F)c1Nc1ccc(I)cc1F)N1CC(O)([C@@H]2CCCCN2)C1` [Cobimetinib], the Cmax [2] is listed as 514 nM and the “Calculated IC50 PD3D Cell Culture” value [3] is listed as “Not Reached”.

For `C[C@H]1[C@H](OC(=O)CCC(=O)O)O[C@@H]2O[C@@]3(C)CC[C@H]4[C@H](C)CC[C@@H]1[C@@]24OO3` [Artesunate], the Cmax ([2]; in vivo) is given as 8580 nM and the IC50 ([3]; Homo sapiens) is given as 38.4 µM.

In the case of Bevacizumab, the Cmax ([2]; in vivo) is listed as 920 nM and the “Calculated IC50 PD3D Cell Culture” value [3] is listed as “Not Reached”.

In the case of `COc1cc([C@@H]2c3cc4c(cc3[C@@H](O[C@@H]3O[C@@H]5CO[C@@H](C)O[C@H]5[C@H](O)[C@H]3O)[C@H]3COC(=O)[C@H]23)OCO4)cc(OC)c1O` [Etoposide], the “% Cell Death” value [1] is given as 33%, the Cmax [2] is given as 33900 nM and the IC50 ([3]; Homo sapiens, unit inferred) is given as 87.3 µM.

In the case of `CCN(CC)CCNC(=O)c1c(C)[nH]c(/C=C2\C(=O)Nc3ccc(F)cc32)c1C` [Sunitnib], the Cmax ([2]; in vivo) is listed as 90 nM and the “Calculated IC50 PD3D Cell Culture” value [3] is listed as “Not Reached”.

In the case of `Cn1nnc2c(C(N)=O)ncn2c1=O` [Temozolomide], the “% Cell Death” value [1] is given as 40%, the Cmax ([2]; in vivo) is given as 37600 nM and the IC50 ([3]; Homo sapiens) is given as 106 µM.

In the case of `Nc1cccc2c1C(=O)N(C1CCC(=O)NC1=O)C2=O` (stereo not shown) [Pomalidomide], the Cmax ([2]; in vivo) is listed as 270 nM and the “Calculated IC50 PD3D Cell Culture” value [3] is listed as “Not Reached”.

For `N[C@@H](CCC(=O)N[C@@H](CS)C(=O)NCC(=O)O)C(=O)O` [Glutathione], the Cmax ([2]; in vivo) is listed as 150000 nM and the “Calculated IC50 PD3D Cell Culture” value [3] is listed as “Not Reached”.

For gemcitabine/capecitabine [GemCap], the “response of the patient's organoids” value [9] was “partial response”.

For `Cc1[nH]c2ccccc2c1CCNCc1ccc(/C=C/C(=O)NO)cc1` [Panobinostat], the Cmax ([2]; in vivo) is listed as 60 nM and the IC50 ([3]; Homo sapiens) is listed as 0.11 µM.

In the case of `CCN(CCO)CCCC(C)Nc1ccnc2cc(Cl)ccc12` (stereo not shown) [Hydroxychloroquine], the Cmax ([2]; in vivo) is listed as 120 nM and the “Calculated IC50 PD3D Cell Culture” value [3] is listed as “Not Reached”.

In the case of `CCN1CCN(Cc2ccc(Nc3ncc(F)c(-c4cc(F)c5nc(C)n(C(C)C)c5c4)n3)nc2)CC1` [Abemaciclib], the “adverse effects of the patient's earlier treatment” value (endometrial cancer; human, in vivo) is reported as “severe adverse effects”.

For `O=C1O[C@H]([C@@H](O)CO)C(O)=C1O` [Ascorbic Acid], the Cmax ([2]; in vivo) is given as 436000 nM and the “Calculated IC50 PD3D Cell Culture” value [3] is given as “Not Reached”.

For `COc1cc2nccc(Oc3ccc(NC(=O)NC4CC4)c(Cl)c3)c2cc1C(N)=O` [Lenvatinib], the Cmax [2] is listed as 1000 nM and the “Calculated IC50 PD3D Cell Culture” value [3] is listed as “Not Reached”.
